# Results published in article PMC6389993, “Quercetin and its metabolite isorhamnetin promote glucose uptake through different signalling pathways in myotubes” (Scientific Reports, 2019).
# Experiments:
# JAK3 = assay: Phosphorylation of JAK3 in L6 myotubes (western blot); format: cell-based, rat; details: physiological concentration range (0.1–10 nM), 15 min
# Procedure: (§1) For in vitro cell culture experiments, after serum starvation for 18 h, myotubes were treated with various concentrations of quercetin or isorhamnetin (0.1–10 nM) for 15 min; DMSO (final 0.1%) was used as a vehicle control. As positive controls, 100 nM insulin, 1 mM AICAR, 10 nM leptin, or 100 ng/mL IL-15 were used for insulin, AMPK, JAK2/STAT, or JAK3/STAT signalling pathways, respectively. Cells were treated with insulin or AICAR for 15 min, leptin for 60 min, or IL-15 for 24 h. Whole protein and plasma membrane fractions were prepared from myotubes, as previously described. For in vivo experiment, plasma membrane fraction and tissue lysate of soleus muscle were prepared.
# (§2) Translocation of GLUT4 to the plasma membrane, as well as expression and phosphorylation levels of GLUT4-related regulators were estimated by western blot analysis. Briefly, equal amounts of proteins were separated by sodium dodecyl sulfate-polyacrylamide gel electrophoresis (SDS-PAGE). […] Specific immune complexes were developed using ImmunoStar® LD and detected with an ATTO Light-Capture II Western Blotting Detection System. Individual band density was calculated by ImageJ and normalized to the control.
# STAT3 = assay: Phosphorylation of STAT3 in L6 myotubes (western blot); format: cell-based, rat; details: 10 nM, 15 min
# Procedure: as §1, §2
# STAT5 = assay: Phosphorylation of STAT5 in L6 myotubes (western blot); format: cell-based, rat; details: 1 nM, 15 min
# Procedure: as §1, §2
# ACC = assay: Phosphorylation of ACC in L6 myotubes (western blot); format: cell-based, rat; details: 0.1 nM or 1 nM, 15 min
# Procedure: as §1, §2
# PKCζ/λ = assay: Phosphorylation of PKCζ/λ in L6 myotubes; format: cell-based, rat; details: 10 nM, data not shown
# [1] = cited from earlier work
smiles,measurement,setting,value
"COc1cc(-c2oc3cc(O)cc(O)c3c(=O)c2O)ccc1O [isorhamnetin, 3′-O-methyl quercetin]",JAK3 phosphorylation,JAK3,effectively promoted
same,phosphorylation of STAT3,STAT3,increased
same,phosphorylation of STAT5,STAT5,increased
"O=c1c(O)c(-c2ccc(O)c(O)c2)oc2cc(O)cc(O)c12 [quercetin, 3,3′,4′,5,7-pentahydroxy flavone]",phosphorylation of ACC,ACC,phosphorylation was increased
same,phosphorylation of PKCζ/λ,PKCζ/λ,phosphorylated
same,basal concentrations in the blood,"[1]; humans, after consumption of 80–100 mg of quercetin equivalent",300 to 750 nM
same,absorption rate,[1]; in humans,9–20%
